Measured values taken from the Kinase Knowledgebase extract (Sharma et al. 2016).
pIC50: −log10 of the molar value.

target: PIK3CD (Human) (UniProt O00329); test: Inhibition of PIK3CD Kinase Activity
Sequence (O00329 whole entry, looked up): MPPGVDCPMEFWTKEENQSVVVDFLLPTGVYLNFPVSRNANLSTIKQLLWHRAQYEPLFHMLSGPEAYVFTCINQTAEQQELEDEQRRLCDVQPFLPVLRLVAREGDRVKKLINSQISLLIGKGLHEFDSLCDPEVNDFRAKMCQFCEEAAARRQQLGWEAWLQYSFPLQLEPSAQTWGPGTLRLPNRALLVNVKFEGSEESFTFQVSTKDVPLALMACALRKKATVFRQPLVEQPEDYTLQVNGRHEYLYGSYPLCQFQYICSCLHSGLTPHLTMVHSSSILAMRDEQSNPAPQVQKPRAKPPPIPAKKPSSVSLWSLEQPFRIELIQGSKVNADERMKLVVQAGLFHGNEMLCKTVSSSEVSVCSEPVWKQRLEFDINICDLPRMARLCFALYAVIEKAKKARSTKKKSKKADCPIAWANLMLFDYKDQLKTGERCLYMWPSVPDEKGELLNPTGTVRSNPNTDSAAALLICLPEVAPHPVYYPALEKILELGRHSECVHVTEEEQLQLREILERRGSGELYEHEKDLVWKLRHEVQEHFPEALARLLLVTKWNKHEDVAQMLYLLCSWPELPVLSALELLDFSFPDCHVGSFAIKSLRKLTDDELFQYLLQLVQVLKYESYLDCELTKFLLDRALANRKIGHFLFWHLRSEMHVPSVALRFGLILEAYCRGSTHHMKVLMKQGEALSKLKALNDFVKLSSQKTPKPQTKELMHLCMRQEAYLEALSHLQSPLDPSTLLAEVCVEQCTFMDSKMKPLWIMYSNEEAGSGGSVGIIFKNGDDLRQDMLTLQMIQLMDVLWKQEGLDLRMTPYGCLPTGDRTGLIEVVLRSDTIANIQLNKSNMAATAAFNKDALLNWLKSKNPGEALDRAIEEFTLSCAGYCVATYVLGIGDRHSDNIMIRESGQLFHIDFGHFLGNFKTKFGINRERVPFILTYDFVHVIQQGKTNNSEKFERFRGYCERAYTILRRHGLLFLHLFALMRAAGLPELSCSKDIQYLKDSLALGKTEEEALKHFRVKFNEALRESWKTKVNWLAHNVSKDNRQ

SMILES | pIC50
CC(C)(C(N)=O)N1CCN(Cc2nc3c(N4CCOCC4)nc(-c4cccc5[nH]ccc45)nc3[nH]2)CC1 | > 6.30
CCn1c(CN2CCN(C(C)C)C(=O)C2)nc2c(N3CCOCC3)nc(-c3c(F)ccc4[nH]ccc34)nc21 | > 6.30
CCn1c(CN2CCC(N3CCC3=O)CC2)nc2c(N3CCOCC3)nc(-c3cccc4[nH]ccc34)nc21 | > 6.30
CCn1c(CN2CCC(c3cc[nH]n3)CC2)nc2c(N3CCOCC3)nc(-c3cccc4[nH]ccc34)nc21 | > 6.30
CCn1c(CN2CCC(C(=O)O)(N3CCOCC3)CC2)nc2c(N3CCOCC3)nc(-c3c(F)ccc4[nH]ccc34)nc21 | > 6.30
CC(C)(C(N)=O)N1CCN(Cc2nc3c(N4CCOCC4)nc(-c4c(F)ccc5[nH]ccc45)nc3n2CCO)CC1 | > 6.30
CCn1c(CN2CCC3(CCNC3=O)CC2)nc2c(N3CCOCC3)nc(-c3cccc4[nH]ccc34)nc21 | > 6.30
CCn1c(CN2CCC(N(C)C)CC2)nc2c(N3CCOCC3)nc(-c3c(F)ccc4[nH]ccc34)nc21 | > 6.30
CCn1c(CN2CCC(N3CC(F)(F)C3)CC2)nc2c(N3CCOCC3)nc(-c3cccc4[nH]ccc34)nc21 | > 6.30
CCn1c(CN2CCN(C3CCOCC3)CC2)nc2c(N3CCOCC3)nc(-c3c(F)ccc4[nH]ccc34)nc21 | > 6.30
CCn1c(CN2CCC(n3cccn3)CC2)nc2c(N3CCOCC3)nc(-c3cccc4[nH]ccc34)nc21 | > 6.30
CCn1c(CN2CC(N3CCOCC3)C2)nc2c(N3CCOCC3)nc(-c3c(F)ccc4[nH]ccc34)nc21 | > 6.30
CCn1c(CN2CCC(N3CCC3=O)CC2)nc2c(N3CCOCC3)nc(-c3c(F)ccc4[nH]ccc34)nc21 | > 6.30
CCn1c(CN2CC(=O)NC(C)(C)C2)nc2c(N3CCOCC3)nc(-c3c(F)ccc4[nH]ccc34)nc21 | > 6.30
Cn1c(CN2CCN(C(C)(C)C(N)=O)CC2)nc2c(N3CCOCC3)nc(-c3c(F)ccc4[nH]ccc34)nc21 | > 6.30
CCn1c(CN2CCC(C(=O)O)CC2)nc2c(N3CCOCC3)nc(-c3c(F)ccc4[nH]ccc34)nc21 | > 6.30
CCn1c(CN2CCC(N3CCCCC3=O)CC2)nc2c(N3CCOCC3)nc(-c3c(F)ccc4[nH]ccc34)nc21 | > 6.30
CCn1c(CN2CCC(N3CC(F)C3)CC2)nc2c(N3CCOCC3)nc(-c3cccc4[nH]ccc34)nc21 | > 6.30
CCn1c(CN2CC(N(C)C(C)(C)C(N)=O)C2)nc2c(N3CCOCC3)nc(-c3cccc4[nH]ccc34)nc21 | > 6.30
CCn1c(CN2CCN(C(C)(C)C(N)=O)CC2)nc2c(N3CCOCC3)nc(-c3c(F)ccc4[nH]ccc34)nc21 | > 6.30
CCn1c(CN2CCC(N3CCCC3=O)CC2)nc2c(N3CCOCC3)nc(-c3c(F)ccc4[nH]ccc34)nc21 | > 6.30
CCn1c(CN2CCc3ccccc3C2)nc2c(N3CCOCC3)nc(-c3c(F)ccc4[nH]ccc34)nc21 | > 6.30
CCn1c(CN2CCC3(CC2)CNC(=O)CO3)nc2c(N3CCOCC3)nc(-c3c(F)ccc4[nH]ccc34)nc21 | > 6.30
CCn1c(CN2CC(N(C)C(C)(C)C(N)=O)C2)nc2c(N3CCOCC3)nc(-c3c(F)ccc4[nH]ccc34)nc21 | > 6.30
Cn1c(CN2CCN(C(C)(C)C(N)=O)CC2)nc2c(N3CCOCC3)nc(-c3cccc4[nH]ccc34)nc21 | > 6.30
CCn1c(CN2CCC(N3CCS(=O)(=O)CC3)CC2)nc2c(N3CCOCC3)nc(-c3c(F)ccc4[nH]ccc34)nc21 | > 6.30
CCn1c(CN2CCN(CC(N)=O)[C@@H](C(C)C)C2)nc2c(N3CCOCC3)nc(-c3cccc4[nH]ccc34)nc21 | > 6.30

SMILES | pIC50
CN(C)C1CCN(Cc2nc3c(N4CCOCC4)nc(-c4cccc5[nH]ccc45)nc3[nH]2)CC1 | > 6.30
CCn1c(CN2CC3COCC(C2)N3)nc2c(N3CCOCC3)nc(-c3c(F)ccc4[nH]ccc34)nc21 | > 6.30
CCn1c(CN2CCC(N3CCOCC3)CC2)nc2c(N3CCOCC3)nc(-c3c(F)ccc4[nH]ccc34)nc21 | > 6.30
CCn1c(CN2CCc3ccccc3C2)nc2c(N3CCOCC3)nc(-c3cccc4[nH]ccc34)nc21 | > 6.30
CN(C)C1CCN(Cc2nc3c(N4CCOCC4)nc(-c4c(F)ccc5[nH]ccc45)nc3[nH]2)CC1 | > 6.30
CCn1c(CN2CCC(N3CCOCC3=O)CC2)nc2c(N3CCOCC3)nc(-c3c(F)ccc4[nH]ccc34)nc21 | > 6.30
CCn1c(CN2CCC(N3CC(F)(F)C3)CC2)nc2c(N3CCOCC3)nc(-c3c(F)ccc4[nH]ccc34)nc21 | > 6.30
CCn1c(CN2CCN(C3CCOCC3)CC2)nc2c(N3CCOCC3)nc(-c3cccc4[nH]ccc34)nc21 | > 6.30
CCn1c(CN2CCC(C(N)=O)CC2)nc2c(N3CCOCC3)nc(-c3c(F)ccc4[nH]ccc34)nc21 | > 6.30
CCn1c(CN2CCN(CC(F)(F)F)CC2)nc2c(N3CCOCC3)nc(-c3c(F)ccc4[nH]ccc34)nc21 | > 6.30
CCn1c(CN2CCN3CCOC[C@H]3C2)nc2c(N3CCOCC3)nc(-c3c(F)ccc4[nH]ccc34)nc21 | > 6.30
CCn1c(CN2CC(NC(C)(C)C(N)=O)C2)nc2c(N3CCOCC3)nc(-c3c(F)ccc4[nH]ccc34)nc21 | > 6.30
CCn1c(CN2CCC(N3CCOC3=O)CC2)nc2c(N3CCOCC3)nc(-c3c(F)ccc4[nH]ccc34)nc21 | > 6.30
CCn1c(CN2CCN(CC(N)=O)C(C)(C)C2)nc2c(N3CCOCC3)nc(-c3cccc4[nH]ccc34)nc21 | > 6.30
CCn1c(CN2CCC(N3CCS(=O)(=O)CC3)CC2)nc2c(N3CCOCC3)nc(-c3cccc4[nH]ccc34)nc21 | > 6.30
CCn1c(CN2CCC(N3CCOCC3=O)CC2)nc2c(N3CCOCC3)nc(-c3cccc4[nH]ccc34)nc21 | > 6.30
CCn1c(CN2CCC3(CC2)CNC(=O)C3)nc2c(N3CCOCC3)nc(-c3cccc4[nH]ccc34)nc21 | > 6.30
CCn1c(CN2CCN(C3CCS(=O)(=O)CC3)CC2)nc2c(N3CCOCC3)nc(-c3cccc4[nH]ccc34)nc21 | > 6.30
CCn1c(CN2C[C@@H](C)N(CC(N)=O)[C@@H](C)C2)nc2c(N3CCOCC3)nc(-c3c(F)ccc4[nH]ccc34)nc21 | > 6.30
CCn1c(CN2CCN3CCOC[C@H]3C2)nc2c(N3CCOCC3)nc(-c3cccc4[nH]ccc34)nc21 | > 6.30
CCn1c(CN2CCN3CCC[C@H]3C2)nc2c(N3CCOCC3)nc(-c3cccc4[nH]ccc34)nc21 | > 6.30
CCn1c(CN2CCN(C(C)C)C(=O)C2)nc2c(N3CCOCC3)nc(-c3cccc4[nH]ccc34)nc21 | > 6.30
CCn1c(CN2CCC(C(N)=O)(N3CCOCC3)CC2)nc2c(N3CCOCC3)nc(-c3cccc4[nH]ccc34)nc21 | > 6.30
CCn1c(CN2CCC(n3cccn3)CC2)nc2c(N3CCOCC3)nc(-c3c(F)ccc4[nH]ccc34)nc21 | > 6.30
CCn1c(CN2CCC(N3CCOCC3)CC2)nc2c(N3CCOCC3)nc(-c3cccc4[nH]ccc34)nc21 | > 6.30
CCn1c(CN2CCC(N(C)S(C)(=O)=O)CC2)nc2c(N3CCOCC3)nc(-c3c(F)ccc4[nH]ccc34)nc21 | > 6.30
CCn1c(CN2CCC(N(C)S(C)(=O)=O)CC2)nc2c(N3CCOCC3)nc(-c3cccc4[nH]ccc34)nc21 | > 6.30

SMILES | pIC50
CCn1c(CN2CCC3(CC2)CNC(=O)CO3)nc2c(N3CCOCC3)nc(-c3cccc4[nH]ccc34)nc21 | > 6.30
CCn1c(CN2CCC3(CC2)CNC(=O)C3)nc2c(N3CCOCC3)nc(-c3c(F)ccc4[nH]ccc34)nc21 | > 6.30
CCn1c(CN2CCC(c3cc[nH]n3)CC2)nc2c(N3CCOCC3)nc(-c3c(F)ccc4[nH]ccc34)nc21 | > 6.30
CCn1c(CN2CCC(N3CCC3)CC2)nc2c(N3CCOCC3)nc(-c3c(F)ccc4[nH]ccc34)nc21 | > 6.30
CCn1c(CN2CC[C@H](NC(C)(C)C(N)=O)C2)nc2c(N3CCOCC3)nc(-c3c(F)ccc4[nH]ccc34)nc21 | > 6.30
CCn1c(CN2CC(NC(C)(C)C(N)=O)C2)nc2c(N3CCOCC3)nc(-c3cccc4[nH]ccc34)nc21 | > 6.30
c1cc(-c2nc(N3CCOCC3)c3nc(CN4CCN5CCOC[C@H]5C4)[nH]c3n2)c2cc[nH]c2c1 | > 6.30
CCn1c(CN2CCN(C3CCS(=O)(=O)CC3)CC2)nc2c(N3CCOCC3)nc(-c3c(F)ccc4[nH]ccc34)nc21 | > 6.30
CCn1c(CN2CCC(C)(C(N)=O)CC2)nc2c(N3CCOCC3)nc(-c3c(F)ccc4[nH]ccc34)nc21 | > 6.30
CCn1c(CN2CC(=O)NC(C)(C)C2)nc2c(N3CCOCC3)nc(-c3cccc4[nH]ccc34)nc21 | > 6.30
CCn1c(CN2CCC(N3CCCCC3=O)CC2)nc2c(N3CCOCC3)nc(-c3cccc4[nH]ccc34)nc21 | > 6.30
CCn1c(CN2CCC3(CCNC3=O)CC2)nc2c(N3CCOCC3)nc(-c3c(F)ccc4[nH]ccc34)nc21 | > 6.30
CC(C)(C(N)=O)N1CCN(Cc2nc3c(N4CCOCC4)nc(-c4c(F)ccc5[nH]ccc45)nc3[nH]2)CC1 | > 6.30
CCn1c(CN2CCC(N(C)C)CC2)nc2c(N3CCOCC3)nc(-c3cccc4[nH]ccc34)nc21 | > 6.30
CCn1c(CN2CCN(CC(F)(F)F)CC2)nc2c(N3CCOCC3)nc(-c3cccc4[nH]ccc34)nc21 | > 6.30
CCn1c(CN2CCN(C(C)(C)C(N)=O)CC2)nc2c(N3CCOCC3)nc(-c3cccc4[nH]ccc34)nc21 | > 6.30
CCn1c(CN2CCN3CCC[C@H]3C2)nc2c(N3CCOCC3)nc(-c3c(F)ccc4[nH]ccc34)nc21 | > 6.30
CCn1c(CN2CCN(CC(N)=O)[C@@H](C(C)C)C2)nc2c(N3CCOCC3)nc(-c3c(F)ccc4[nH]ccc34)nc21 | > 6.30
CCn1c(CN2C[C@@H](C)N(CC(N)=O)[C@@H](C)C2)nc2c(N3CCOCC3)nc(-c3cccc4[nH]ccc34)nc21 | > 6.30
CCn1c(CN2CCC(N3CCOC3=O)CC2)nc2c(N3CCOCC3)nc(-c3cccc4[nH]ccc34)nc21 | > 6.30
CCn1c(CN2CCOC(C)(C)C2)nc2c(N3CCOCC3)nc(-c3cccc4[nH]ccc34)nc21 | > 6.30
CCn1c(CN2CCC(N3CCCC3=O)CC2)nc2c(N3CCOCC3)nc(-c3cccc4[nH]ccc34)nc21 | > 6.30
CCn1c(CN2CCC(N3CC(F)C3)CC2)nc2c(N3CCOCC3)nc(-c3c(F)ccc4[nH]ccc34)nc21 | > 6.30
CCn1c(CN2CC(N3CCOCC3)C2)nc2c(N3CCOCC3)nc(-c3cccc4[nH]ccc34)nc21 | > 6.30
CCn1c(CN2CCN3C(=O)COC[C@H]3C2)nc2c(N3CCOCC3)nc(-c3c(F)ccc4[nH]ccc34)nc21 | > 6.30
CCn1c(CN2CCOC(C)(C)C2)nc2c(N3CCOCC3)nc(-c3c(F)ccc4[nH]ccc34)nc21 | > 6.30
